According to patent US20120022142A1, “RNA Interference Mediated Inhibition of Signal Transducer and Activator of Transcription 1 (STAT1) Gene Expression Using Short Interfering Nucleic Acid (siNA)” (Merck Sharp & Dohme Corp., priority 2009, published 2012):
[invAb] = inverted abasic unit; d = 2'-deoxy (DNA); m = 2'-O-methyl; r = 2'-OH (RNA); f = 2'-fluoro

What was measured:
[1] = system: STAT1 human mRNA; test: Initial screen of siNAs: STAT1 mRNA knock-down in A549 cells (96-well transfection, Taqman RT-PCR); type: cell-based; details: 10 nM siNA, 24 hrs, normalized against GAPDH, average of 2 experiments
Method: A549 (human; ATCC cat# CCL-185): Cells were cultured at 37° C. in the presence of 5% CO2 and grown in Ham's F12K medium with 2 mM L-glutamine adjusted to contain 1.5 g/L sodium bicarbonate and supplemented with fetal bovine serum at a final concentration of 10% and 100 μg/mL of streptomycin and 100 U/mL penicillin.
(§1) Cells were plated in all wells of a tissue-culture treated, 96-well plate at a final count of 5000 cells/well in 100 μL of the appropriate culture media. The cells were cultured for 24 hours after plating at 37° C. in the presence of 5% CO2.
(§2) After 24 hours, complexes containing siNA and RNAiMax were created as follows: A solution of RNAiMax diluted 33-fold in OPTI-MEM was prepared. In parallel, solutions of the siNAs for testing were prepared to a final concentration of 120 nM in OPTI-MEM. After incubation of RNAiMax/OPTI-MEM solution at room temperature for 5 min, an equal volume of the siNA solution and the RNAiMax solution were added together for each of the siNAs.
(§3) This solution was incubated at room temperature for 20 minutes. After incubation, 20 uL of the solution was added to each of the relevant wells. The final concentration of siNA in each well was 10 nM and the final volume of RNAiMax in each well was 0.3 ul.
(§4) The time of incubation with the RNAiMax-siNA complexes was 24 hours and there was no change in media between transfection and harvesting, unless otherwise indicated.
(§5) RNA was extracted from a 96-well plate using the TaqMan® Gene Expression Cells-to-CT™ Kit (Cat# 4399002) with a modified protocol. Briefly, a 60 uL (1 plate) or 110 uL (2 plates) of the Lysis Solution with DNase I was dispensed into each well of the Lysis Buffer Plate (twin.tec full skirt plate). The lysis buffer and stop plates were stored at 4° C. until the cells were washed.
(§6) The culture medium was aspirated and discarded from the wells of the culture plate. 50 uL of chilled DPBS was added to each well, then aspirated and discarded. The lysis was performed automatically using a BioMek FX instrument and method. After the Biomek method was completed, the lysis plate was incubated for 2 min at room temperature. The lysis plate can be stored for 2 hours at 4° C., or at −20° C. or −80° C. for two months.
(§7) Each well of the reverse transcription plate required 10 uL of 2× reverse transcriptase Buffer, 1 uL of 20× reverse transcription enzyme and 2 uL of nuclease-free water. The reverse transcription master mix was prepared by mixing 2× reverse transcription buffer, 20× reverse transcription enzyme mix, and nuclease-free water. 13 uL of the reverse transcription master mix was dispensed into each well of the reverse transcription plate (semi-skirted). A separate reverse transcription plate was prepared for each cell plate. The plate was loaded onto a Biomek NX or Biomek FX Dual-96 and the Biomek method was run. The program is programmed to automatically added 7 uL of lysate from the cell lysis procedure described above into each well of the reverse transcription plate. The plate is sealed and spun on a centrifuge (1000 rpm for 30 seconds) to settle the contents to the bottom of the reverse transcription plate. The plate is placed in a thermocycler at 37° C. for 60 min, 95° C. for 5 min, and 4° C. until the plate is removed from the thermocycler. Upon removal, if not used immediately, the plate was frozen at −20° C.
(§8) A series of probes and primers were used to detect the various mRNA transcripts of the genes of β-Actin (human cell line only), and of STAT1 and GAPDH in mouse and human cell lines. All Taqman probes and primers for the experiments here-in described were supplied as pre-validated sets by Applied Biosystems, Inc. (see Table 2).
The assays were performed on an ABI 7900 instrument, according to the manufacturer's instructions.
Within each experiment, the baseline was set in the exponential phase of the amplification curve, and based on the intersection point of the baselines with the amplification curve, a Ct value was assigned by the instrument. […]

[2] = system: STAT1 mouse mRNA; test: Initial screen of siNAs: STAT1 mRNA knock-down in NIH 3T3 cells (96-well transfection, Taqman RT-PCR); type: cell-based; details: 10 nM siNA, 24 hrs, normalized against GAPDH, average of 2 experiments
Method: NIH 3T3 (mouse; ATCC cat# CRL-1658): Cells were cultured at 37° C. in the presence of 5% CO2 and grown in Dulbecco's modified Eagle's medium (DMEM) with 4 mM L-glutamine adjusted to contain 1.5 g/L sodium bicarbonate and 4.5 g/L glucose and supplemented with fetal bovine serum at a final concentration of 10%, 100 μg/mL of streptomycin, and 100 U/mL penicillin.
as §1, §2, §3, §4, §5, §6, §7, §8
The assays were performed on an ABI 7900 instrument, according to the manufacturer's instructions. […]

Substance	% KD Human [1] [%]	% KD Mouse [2] [%]
25359-DC: STAT1 siNA duplex, human target site 268; modified strands SEQ ID NO: 55 and 56 (chain 1 CGACAGUCUUGGCACCUAATT; chain 2 UUAGGUGCCAAGACUGUCGUU; chain 1: DNA at AGT, 2'-fluoro at CU, [invAb] at 5' end, 3' end, backbone not given here; chain 2: sugars from the 5' end rrrmmfmffmmmmffmffmmm, backbone not given here)	88	47
25354-DC: STAT1 siNA duplex, human target site 678; modified strands SEQ ID NO: 45 and 46 (chain 1 GAAGGAAGAAAGGAAAAUUTT; chain 2 AAUUUUCCUUUCUUCCUUCUU; chain 1: sugars from the 5' end d17 f2 d2, [invAb] at 5' end, 3' end, backbone not given here; chain 2: sugars from the 5' end r3 f16 m2, backbone not given here)	91	80
25356-DC: STAT1 siNA duplex, human target site 1115; modified strands SEQ ID NO: 49 and 50 (chain 1 GCUUGGAUCAGCUGCAGAATT; chain 2 UUCUGCAGCUGAUCCAAGCUU; chain 1: DNA at AGT, 2'-fluoro at CU, [invAb] at 5' end, 3' end, backbone not given here; chain 2: sugars from the 5' end rrrfmfmmffmmfffmmmfmm, backbone not given here)	43	35
25349-DC: STAT1 siNA duplex, human target site 185; modified strands SEQ ID NO: 35 and 36 (chain 1 CCUGCGCGCAGAAAAGUUUTT; chain 2 AAACUUUUCUGCGCGCAGGUU; chain 1: DNA at AGT, 2'-fluoro at CU, [invAb] at 5' end, 3' end, backbone not given here; chain 2: sugars from the 5' end rrrfffffffmfmfmfmmmmm, backbone not given here)	91	33
25363-DC: STAT1 siNA duplex, human target site 480; modified strands SEQ ID NO: 63 and 64 (chain 1 GGAGCACGCUGCCAAUGAUTT; chain 2 AUCAUUGGCAGCGUGCUCCUU; chain 1: DNA at AGT, 2'-fluoro at CU, [invAb] at 5' end, 3' end, backbone not given here; chain 2: sugars from the 5' end rrrmffmmfmmfmfmffffmm, backbone not given here)	83	72
25364-DC: STAT1 siNA duplex, human target site 674; modified strands SEQ ID NO: 65 and 66 (chain 1 GUCUGAAGGAAGAAAGGAATT; chain 2 UUCCUUUCUUCCUUCAGACUU; chain 1: sugars from the 5' end d1 f3 d17, [invAb] at 5' end, 3' end, backbone not given here; chain 2: sugars from the 5' end r3 f12 m3 f1 m2, backbone not given here)	88	83
25350-DC: STAT1 siNA duplex, human target site 190; modified strands SEQ ID NO: 37 and 38 (chain 1 GCGCAGAAAAGUUUCAUUUTT; chain 2 AAAUGAAACUUUUCUGCGCUU; chain 1: DNA at AGT, 2'-fluoro at CU, [invAb] at 5' end, 3' end, backbone not given here; chain 2: sugars from the 5' end rrrfmmmmfffffffmfmfmm, backbone not given here)	82	31
25346-DC: STAT1 siNA duplex, human target site 837; modified strands SEQ ID NO: 29 and 30 (chain 1 CCUGGAAGAUUUACAAGAUTT; chain 2 AUCUUGUAAAUCUUCCAGGUU; chain 1: DNA at AGT, 2'-fluoro at CU, [invAb] at 5' end, 3' end, backbone not given here; chain 2: sugars from the 5' end rrrffmfmmmffffffmmmmm, backbone not given here)	62	31
25348-DC: STAT1 siNA duplex, human target site 746; modified strands SEQ ID NO: 33 and 34 (chain 1 GCACAGUGAUGUUAGACAATT; chain 2 UUGUCUAACAUCACUGUGCUU; chain 1: DNA at AGT, 2'-fluoro at CU, [invAb] at 5' end, 3' end, backbone not given here; chain 2: sugars from the 5' end rrrfffmmfmffmffmfmfmm, backbone not given here)	51	37
25353-DC: STAT1 siNA duplex, human target site 2253; modified strands SEQ ID NO: 43 and 44 (chain 1 CACGAAGAAAGAACUUUCUTT; chain 2 AGAAAGUUCUUUCUUCGUGUU; chain 1: DNA at AGT, 2'-fluoro at CU, [invAb] at 5' end, 3' end, backbone not given here; chain 2: sugars from the 5' end rrrmmmffffffffffmfmmm, backbone not given here)	86	79
